Measurements as given in US20090299044A1 (priority 2006, published 2009).
Bridge positions count the residues as written; N and C are the ends. Square brackets hold non-standard residues; d marks the D form. Peptide text beside a SMILES is read from it. 1Nal = N[C@@H](Cc1cccc2ccccc12)C(=O)O

Columns and labels:
human Kv1.3 (CHO) = target: T1, human Kv1.3 (CHO) (Homo sapiens, UniProt P22001); assay: cell-based
T1 construct: expressed in transfected cells; host or cells: CHO

human Kv1.1 (HEK293) = target: T2, human Kv1.1 (HEK293) (Homo sapiens, UniProt Q09470); assay: cell-based
T2 construct: expressed in transfected cells; host or cells: HEK293
T2 sequence (Q09470 whole entry): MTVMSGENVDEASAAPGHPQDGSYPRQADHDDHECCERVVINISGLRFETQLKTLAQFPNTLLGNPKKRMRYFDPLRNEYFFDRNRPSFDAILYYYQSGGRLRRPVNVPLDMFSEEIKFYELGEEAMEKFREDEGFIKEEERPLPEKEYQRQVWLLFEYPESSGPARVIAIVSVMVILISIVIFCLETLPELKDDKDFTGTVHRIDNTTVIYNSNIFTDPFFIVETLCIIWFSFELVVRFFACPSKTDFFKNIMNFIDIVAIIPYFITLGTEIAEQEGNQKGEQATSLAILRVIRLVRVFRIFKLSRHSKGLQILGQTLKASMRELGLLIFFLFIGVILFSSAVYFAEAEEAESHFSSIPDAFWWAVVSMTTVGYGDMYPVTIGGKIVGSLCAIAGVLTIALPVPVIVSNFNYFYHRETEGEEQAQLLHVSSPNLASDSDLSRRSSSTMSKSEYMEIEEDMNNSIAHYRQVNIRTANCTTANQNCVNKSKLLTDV

T1 sequence (P22001 whole entry): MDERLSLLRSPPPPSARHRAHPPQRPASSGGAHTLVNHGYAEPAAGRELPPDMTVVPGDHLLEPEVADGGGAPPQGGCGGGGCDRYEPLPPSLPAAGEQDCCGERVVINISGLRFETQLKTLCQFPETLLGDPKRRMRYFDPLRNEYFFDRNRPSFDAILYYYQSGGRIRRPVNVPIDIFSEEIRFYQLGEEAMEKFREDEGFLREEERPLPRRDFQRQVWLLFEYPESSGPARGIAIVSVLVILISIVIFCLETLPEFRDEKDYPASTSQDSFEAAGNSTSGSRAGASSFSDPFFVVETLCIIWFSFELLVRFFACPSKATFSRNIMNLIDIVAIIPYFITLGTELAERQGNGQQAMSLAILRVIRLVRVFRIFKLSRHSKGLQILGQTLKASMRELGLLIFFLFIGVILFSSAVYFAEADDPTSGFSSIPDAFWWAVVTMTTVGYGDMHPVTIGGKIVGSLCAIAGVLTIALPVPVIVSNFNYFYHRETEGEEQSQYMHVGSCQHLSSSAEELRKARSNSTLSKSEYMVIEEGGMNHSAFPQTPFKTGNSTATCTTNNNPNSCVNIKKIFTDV

SMILES	IC50 (human Kv1.3 (CHO))	IC50 (human Kv1.1 (HEK293))
CC[C@H](C)[C@@H]1NC(=O)[C@H](CCCCN)NC(=O)[C@@H](NC(=O)[C@H](CCCCN)NC(=O)[C@@H](NC(=O)[C@H](CC(N)=O)NC(=O)[C@@H](NC(=O)[C@H](CCCNC(=N)N)NC(=O)[C@@H](NC(=O)CN)C(C)C)[C@@H](C)CC)C(C)C)CSSC[C@@H]2NC(=O)[C@H](CCCCN)NC(=O)CNC(=O)[C@H](Cc3ccccc3)NC(=O)[C@H](CCCNC(=N)N)NC(=O)[C@H](CCSC)NC(=O)CNC(=O)[C@H](C)NC(=O)[C@H](CCCCN)NC(=O)[C@H](CCCCN)NC(=O)[C@@H]3CSSC[C@@H](C(=O)N[C@H](C(=O)N4CCC[C@H]4C(=O)N[C@@H](CCCCN)C(=O)O)[C@@H](C)O)NC(=O)[C@H](Cc4c[nH]cn4)NC(=O)[C@H](CSSC[C@H](NC(=O)[C@H](CCC(N)=O)NC(=O)[C@H](CCCNC(=N)N)NC(=O)[C@H](CO)NC1=O)C(=O)N[C@@H](CC(C)C)C(=O)N[C@@H](CCC(=O)O)C(=O)N1CCC[C@H]1C(=O)N3)NC(=O)[C@H](CCCCN)NC(=O)CNC(=O)[C@H](CC(N)=O)NC(=O)[C@H](CCSC)NC2=O [I3R] (H-GVRINVKCKISRQCLEPCKKAGMRFGKCMNGKCHCTPK-OH; disulfide 8-28, 14-33, 18-35)	0.0199 nM	0.00247 nM
CC[C@H](C)[C@@H]1NC(=O)[C@H](CCCCN)NC(=O)[C@@H](NC(=O)[C@H](CCCCN)NC(=O)[C@@H](NC(=O)[C@H](CC(N)=O)NC(=O)[C@H](C)NC(=O)[C@@H](NC(=O)[C@@H](NC(=O)CN)C(C)C)[C@@H](C)CC)C(C)C)CSSC[C@@H]2NC(=O)[C@H](CCCCN)NC(=O)CNC(=O)[C@H](Cc3ccccc3)NC(=O)[C@H](CCCNC(=N)N)NC(=O)[C@H](CCSC)NC(=O)CNC(=O)[C@H](C)NC(=O)[C@H](CCCCN)NC(=O)[C@H](CCCCN)NC(=O)[C@@H]3CSSC[C@@H](C(=O)N[C@H](C(=O)N4CCC[C@H]4C(=O)N[C@@H](CCCCN)C(=O)O)[C@@H](C)O)NC(=O)[C@H](Cc4c[nH]cn4)NC(=O)[C@H](CSSC[C@H](NC(=O)[C@H](CCC(N)=O)NC(=O)[C@H](CCCNC(=N)N)NC(=O)[C@H](CO)NC1=O)C(=O)N[C@@H](CC(C)C)C(=O)N[C@@H](CCC(=O)O)C(=O)N1CCC[C@H]1C(=O)N3)NC(=O)[C@H](CCCCN)NC(=O)CNC(=O)[C@H](CC(N)=O)NC(=O)[C@H](CCSC)NC2=O [I4A] (H-GVIANVKCKISRQCLEPCKKAGMRFGKCMNGKCHCTPK-OH; disulfide 8-28, 14-33, 18-35)	0.195 nM	0.0169 nM
CC[C@H](C)[C@@H]1NC(=O)[C@H](CCCCN)NC(=O)[C@@H](NC(=O)[C@H](CCCCN)NC(=O)[C@@H](NC(=O)[C@H](CC(N)=O)NC(=O)[C@H](CCC(=O)O)NC(=O)[C@@H](NC(=O)[C@@H](NC(=O)CN)C(C)C)[C@@H](C)CC)C(C)C)CSSC[C@@H]2NC(=O)[C@H](CCCCN)NC(=O)CNC(=O)[C@H](Cc3ccccc3)NC(=O)[C@H](CCCNC(=N)N)NC(=O)[C@H](CCSC)NC(=O)CNC(=O)[C@H](C)NC(=O)[C@H](CCCCN)NC(=O)[C@H](CCCCN)NC(=O)[C@@H]3CSSC[C@@H](C(=O)N[C@H](C(=O)N4CCC[C@H]4C(=O)N[C@@H](CCCCN)C(=O)O)[C@@H](C)O)NC(=O)[C@H](Cc4c[nH]cn4)NC(=O)[C@H](CSSC[C@H](NC(=O)[C@H](CCC(N)=O)NC(=O)[C@H](CCCNC(=N)N)NC(=O)[C@H](CO)NC1=O)C(=O)N[C@@H](CC(C)C)C(=O)N[C@@H](CCC(=O)O)C(=O)N1CCC[C@H]1C(=O)N3)NC(=O)[C@H](CCCCN)NC(=O)CNC(=O)[C@H](CC(N)=O)NC(=O)[C@H](CCSC)NC2=O [I4E] (H-GVIENVKCKISRQCLEPCKKAGMRFGKCMNGKCHCTPK-OH; disulfide 8-28, 14-33, 18-35)	0.0157 nM	0.00319 nM
CC[C@H](C)[C@@H]1NC(=O)[C@H](CCCCN)NC(=O)[C@@H](NC(=O)[C@H](CCCCN)NC(=O)[C@@H](NC(=O)[C@H](CC(N)=O)NC(=O)[C@H](Cc2cccc3ccccc23)NC(=O)[C@@H](NC(=O)[C@@H](NC(=O)CN)C(C)C)[C@@H](C)CC)C(C)C)CSSC[C@@H]2NC(=O)[C@H](CCCCN)NC(=O)CNC(=O)[C@H](Cc3ccccc3)NC(=O)[C@H](CCCNC(=N)N)NC(=O)[C@H](CCSC)NC(=O)CNC(=O)[C@H](C)NC(=O)[C@H](CCCCN)NC(=O)[C@H](CCCCN)NC(=O)[C@@H]3CSSC[C@@H](C(=O)N[C@H](C(=O)N4CCC[C@H]4C(=O)N[C@@H](CCCCN)C(=O)O)[C@@H](C)O)NC(=O)[C@H](Cc4c[nH]cn4)NC(=O)[C@H](CSSC[C@H](NC(=O)[C@H](CCC(N)=O)NC(=O)[C@H](CCCNC(=N)N)NC(=O)[C@H](CO)NC1=O)C(=O)N[C@@H](CC(C)C)C(=O)N[C@@H](CCC(=O)O)C(=O)N1CCC[C@H]1C(=O)N3)NC(=O)[C@H](CCCCN)NC(=O)CNC(=O)[C@H](CC(N)=O)NC(=O)[C@H](CCSC)NC2=O [I4Nal] (H-GVI[1Nal]NVKCKISRQCLEPCKKAGMRFGKCMNGKCHCTPK-OH; disulfide 8-28, 14-33, 18-35)	0.015 nM	< 0.00152 nM
CC[C@H](C)[C@@H]1NC(=O)[C@H](CCCCN)NC(=O)[C@@H](NC(=O)[C@H](CCCCN)NC(=O)[C@@H](NC(=O)[C@H](CC(N)=O)NC(=O)[C@H](CCCNC(=N)N)NC(=O)[C@@H](NC(=O)[C@@H](NC(=O)CN)C(C)C)[C@@H](C)CC)C(C)C)CSSC[C@@H]2NC(=O)[C@H](CCCCN)NC(=O)CNC(=O)[C@H](Cc3ccccc3)NC(=O)[C@H](CCCNC(=N)N)NC(=O)[C@H](CCSC)NC(=O)CNC(=O)[C@H](C)NC(=O)[C@H](CCCCN)NC(=O)[C@H](CCCCN)NC(=O)[C@@H]3CSSC[C@@H](C(=O)N[C@H](C(=O)N4CCC[C@H]4C(=O)N[C@@H](CCCCN)C(=O)O)[C@@H](C)O)NC(=O)[C@H](Cc4c[nH]cn4)NC(=O)[C@H](CSSC[C@H](NC(=O)[C@H](CCC(N)=O)NC(=O)[C@H](CCCNC(=N)N)NC(=O)[C@H](CO)NC1=O)C(=O)N[C@@H](CC(C)C)C(=O)N[C@@H](CCC(=O)O)C(=O)N1CCC[C@H]1C(=O)N3)NC(=O)[C@H](CCCCN)NC(=O)CNC(=O)[C@H](CC(N)=O)NC(=O)[C@H](CCSC)NC2=O [I4R] (H-GVIRNVKCKISRQCLEPCKKAGMRFGKCMNGKCHCTPK-OH; disulfide 8-28, 14-33, 18-35)	0.0104 nM	0.00192 nM
CC[C@H](C)[C@H](NC(=O)[C@@H](NC(=O)CN)C(C)C)C(=O)N[C@H](C(=O)N[C@@H](CC(N)=O)C(=O)N[C@H](C(=O)N[C@@H](CCCCN)C(=O)N[C@H]1CSSC[C@@H]2NC(=O)[C@H](CCCCN)NC(=O)CNC(=O)[C@H](Cc3ccccc3)NC(=O)[C@H](CCCNC(=N)N)NC(=O)[C@H](CCSC)NC(=O)CNC(=O)[C@H](C)NC(=O)[C@H](CCCCN)NC(=O)[C@H](CCCCN)NC(=O)[C@@H]3CSSC[C@@H](C(=O)N[C@H](C(=O)N4CCC[C@H]4C(=O)N[C@@H](CCCCN)C(=O)O)[C@@H](C)O)NC(=O)[C@H](Cc4c[nH]cn4)NC(=O)[C@H](CSSC[C@H](NC(=O)[C@H](CCC(N)=O)NC(=O)[C@H](CCCNC(=N)N)NC(=O)[C@H](CO)NC(=O)[C@H](C)NC(=O)[C@H](CCCCN)NC1=O)C(=O)N[C@@H](CC(C)C)C(=O)N[C@@H](CCC(=O)O)C(=O)N1CCC[C@H]1C(=O)N3)NC(=O)[C@H](CCCCN)NC(=O)CNC(=O)[C@H](CC(N)=O)NC(=O)[C@H](CCSC)NC2=O)C(C)C)[C@@H](C)CC [I10A] (H-GVIINVKCKASRQCLEPCKKAGMRFGKCMNGKCHCTPK-OH; disulfide 8-28, 14-33, 18-35)	0.0912 nM	0.00446 nM
CC[C@H](C)[C@H](NC(=O)[C@@H](NC(=O)CN)C(C)C)C(=O)N[C@H](C(=O)N[C@@H](CC(N)=O)C(=O)N[C@H](C(=O)N[C@@H](CCCCN)C(=O)N[C@H]1CSSC[C@@H]2NC(=O)[C@H](CCCCN)NC(=O)CNC(=O)[C@H](Cc3ccccc3)NC(=O)[C@H](CCCNC(=N)N)NC(=O)[C@H](CCSC)NC(=O)CNC(=O)[C@H](C)NC(=O)[C@H](CCCCN)NC(=O)[C@H](CCCCN)NC(=O)[C@@H]3CSSC[C@@H](C(=O)N[C@H](C(=O)N4CCC[C@H]4C(=O)N[C@@H](CCCCN)C(=O)O)[C@@H](C)O)NC(=O)[C@H](Cc4c[nH]cn4)NC(=O)[C@H](CSSC[C@H](NC(=O)[C@H](CCC(N)=O)NC(=O)[C@H](CCCNC(=N)N)NC(=O)[C@H](CO)NC(=O)[C@H](CCC(=O)O)NC(=O)[C@H](CCCCN)NC1=O)C(=O)N[C@@H](CC(C)C)C(=O)N[C@@H](CCC(=O)O)C(=O)N1CCC[C@H]1C(=O)N3)NC(=O)[C@H](CCCCN)NC(=O)CNC(=O)[C@H](CC(N)=O)NC(=O)[C@H](CCSC)NC2=O)C(C)C)[C@@H](C)CC [I10E] (H-GVIINVKCKESRQCLEPCKKAGMRFGKCMNGKCHCTPK-OH; disulfide 8-28, 14-33, 18-35)	0.12 nM	0.0335 nM
CC[C@H](C)[C@H](NC(=O)[C@@H](NC(=O)CN)C(C)C)C(=O)N[C@H](C(=O)N[C@@H](CC(N)=O)C(=O)N[C@H](C(=O)N[C@@H](CCCCN)C(=O)N[C@H]1CSSC[C@@H]2NC(=O)[C@H](CCCCN)NC(=O)CNC(=O)[C@H](Cc3ccccc3)NC(=O)[C@H](CCCNC(=N)N)NC(=O)[C@H](CCSC)NC(=O)CNC(=O)[C@H](C)NC(=O)[C@H](CCCCN)NC(=O)[C@H](CCCCN)NC(=O)[C@@H]3CSSC[C@@H](C(=O)N[C@H](C(=O)N4CCC[C@H]4C(=O)N[C@@H](CCCCN)C(=O)O)[C@@H](C)O)NC(=O)[C@H](Cc4c[nH]cn4)NC(=O)[C@H](CSSC[C@H](NC(=O)[C@H](CCC(N)=O)NC(=O)[C@H](CCCNC(=N)N)NC(=O)[C@H](CO)NC(=O)[C@H](CCCNC(=N)N)NC(=O)[C@H](CCCCN)NC1=O)C(=O)N[C@@H](CC(C)C)C(=O)N[C@@H](CCC(=O)O)C(=O)N1CCC[C@H]1C(=O)N3)NC(=O)[C@H](CCCCN)NC(=O)CNC(=O)[C@H](CC(N)=O)NC(=O)[C@H](CCSC)NC2=O)C(C)C)[C@@H](C)CC [I10R] (H-GVIINVKCKRSRQCLEPCKKAGMRFGKCMNGKCHCTPK-OH; disulfide 8-28, 14-33, 18-35)	0.0117 nM	0.00173 nM
